# From article PMC11881906, “Development of xanthone derivatives as effective broad-spectrum antimicrobials: Disrupting cell wall and inhibiting DNA synthesis” (Science Advances, 2025)
# Where two headings read alike, the source gives them in different places.
# Assays:
# K. pneumoniae = experiment: MIC, summary over K. pneumoniae strains; assay type: cell-based; details: Klebsiella pneumoniae, two strains; read-out: MICs against K. pneumoniae
# Method: MIC was determined using the broth microdilution method in accordance with Clinical and Laboratory Standards Institute guidelines. All compounds were dissolved in dimethyl sulfoxide (DMSO; final DMSO concentration of less than 0.5%) and sterile double-distilled water and then diluted with Mueller-Hinton broth (MHB). Each compound’s stock solution was serially twofold diluted, resulting in concentrations ranging from 0.39 to 100 μg/ml, and thereafter added to sterile 96-well plates. All bacterial cell suspensions were adjusted in MHB to attain a starting inoculum of 1 × 10^6 cells/ml. A total of 100 μl volume of the bacterial suspension was then added to each well. Following a 24-hour incubation at 37°C, the optical density at 600 nm (OD600) was confirmed by measuring absorbance at 600 nm with a BioTek microplate reader. […] All measurements were repeated three times with duplicates each time.
# CCK-8 cytotoxicity assay = assay type: cell-based
# Method: Cytotoxicity of the compound tested was assessed by CCK-8 assays as previously described ([71]). […] Following a 24-hour incubation, 10 μl of CCK-8 reagent was added to each well and incubated for 1 hour. The absorbance at 450 nm was measured by a microplate reader. All measurements were repeated three times with duplicates each time.
# S. aureus ATCC 29213 = experiment: DiSC3(5) membrane depolarization assay; assay type: cell-based, Staphylococcus aureus; details: 1× to 8× MIC
# Method: (§1) The DiSC3(5) assay was carried out to investigate the cytoplasmic membrane depolarization. Mid-log phase bacteria culture was centrifuged and resuspended in sterile Hepes buffer [5 mM (pH 7.4)] to adjust the concentration of bacterial cells to obtain OD600 of 0.1. The bacterial suspension was then incubated with 2 μM DiSC3(5) for 1 hour without being exposed to the light. The change in fluorescence intensity was monitored by a BioTek multidetector microplate reader with an excitation wavelength of 622 nm and an emission wavelength of 670 nm. […] All measurements were repeated three times with duplicates each time.
# E. coli ATCC 25922 = experiment: DiSC3(5) membrane depolarization assay; assay type: cell-based, Escherichia coli; details: 1× to 8× MIC
# Method: as §1
# E. coli DNA = experiment: Electrophoretic mobility shift assay; assay type: binding, Escherichia coli; details: 8× MIC
# Method: Isolation of DNA from pure culture of E. coli ATCC 25922 was carried out by the TIANamp bacterial DNA kit (TIANGEN, China) according to the manufacturer’s instructions. […] A loading buffer containing 10 mM TE (pH 7.5), 0.03% bromophenol blue, 0.03% xylene cyanol FF, 60% glycerol, and 60 mM EDTA was added in the sample following incubation for 30 min at 37°C. The electrophoresis was then performed at 100 V for 2 hours in 1× tris-acetate-EDTA buffer solution [0.04 M tris-acetate (pH 8.0) and 0.001 M EDTA] using a 1% (w/v) agarose gel. The bands were visualized using the ChemiDoc imaging system with ultraviolet light. All of the experiments were repeated at least twice with duplicates each time.
# [1] = Plasma pharmacokinetic study; assay type: in vivo, CD-1 mice; details: for Mean plasma concentration: LLOQ=10 ng/mL; for bioavailability: dose-normalised AUCINF, read-out: bioavailability (F)
# Method: Mouse plasma PK studies were performed at Shanghai Ruizhi Chemical Research Co. Ltd. All experiments related to animals were conducted in compliance with the ethical guidelines approved by the Institutional Animal Care and Use Committee (IACUC) of the Shanghai Ruizhi Chemical Research Co. Ltd. Male CD-1 mice (6 to 8 weeks) were treated with the corresponding dose of drugs formulated in 5% glucose solution (D5W) delivered via intravenous injection via tail vein, intraperitoneal injection, or subcutaneous injection. Following administration, approximately 110 μl of blood was taken via facial vein […] at 0.083, 0.25, 0.5, 1, 2, 4, 8, and 24 hours into K2EDTA tubes. Blood samples were placed on ice and centrifuged to obtain plasma samples (2000g, 5 min under 4°C). Plasma samples were stored at approximately −70°C until analysis. The XT17 concentration in plasma PK studies was measured by liquid chromatography–tandem mass spectrometry (LC-MS/MS) assay using an LC-MS/MS-22 (Triple Quad 6500) instrument. Plasma concentrations versus time data and PK parameters were estimated from noncompartmental analysis using WinNonlin 8.2.
# [2] = human, HepG2 cells, read-out: Viable cells (%) HepG2 cells
# [3] = mouse, NCTC clone 929 fibroblast cells, read-out: %Viable cells NCTC clone 929 cells
# [4] = male, CD-1, mouse, plasma, ip, 20 mg/kg, ip 20 mg/kg
# [5] = male, CD-1, mouse, plasma, iv, 5 mg/kg, IV 5 mg/kg
# [6] = male, CD-1, mouse, plasma, sc, 40 mg/kg, sc 40 mg/kg
# [7] = male, CD-1, mouse, plasma, IP 20 mg/kg
# [8] = male, CD-1, mouse, plasma, IV 5 mg/kg
# [9] = male, CD-1, mouse, plasma, SC 40 mg/kg
smiles,measurement,setting,value
CC(C)=CCOc1cc(OCCCNC(=N)N)cc2oc3cc(OCCCNC(=N)N)ccc3c(=O)c12 [XT17],MIC,K. pneumoniae,6.25 to 12.5 µg/mL
same,"viability at 24 h, 3.125 μg/ml",CCK-8 cytotoxicity assay; [2],105%
same,"viability at 24 h, 6.25 μg/ml",CCK-8 cytotoxicity assay; [2],110%
same,"viability at 24 h, 12.5 μg/ml",CCK-8 cytotoxicity assay; [2],104%
same,"viability at 24 h, 25 μg/ml",CCK-8 cytotoxicity assay; [2],83.9%
same,"viability at 24 h, 50 μg/ml",CCK-8 cytotoxicity assay; [2],62.2 ± 8.01%
same,"viability at 24 h, 100 μg/ml",CCK-8 cytotoxicity assay; [2],40.6%
same,"viability at 24 h, 3.125 μg/ml",CCK-8 cytotoxicity assay; [3],90%
same,"viability at 24 h, 6.25 μg/ml",CCK-8 cytotoxicity assay; [3],87.9%
same,"viability at 24 h, 12.5 μg/ml",CCK-8 cytotoxicity assay; [3],87.7%
same,"viability at 24 h, 25 μg/ml",CCK-8 cytotoxicity assay; [3],78.9 ± 3.46%
same,"viability at 24 h, 50 μg/ml",CCK-8 cytotoxicity assay; [3],51.6 ± 2.46%
same,"viability at 24 h, 100 μg/ml",CCK-8 cytotoxicity assay; [3],8.16%
same,DiSC3(5) fluorescence intensity (membrane depolarization),S. aureus ATCC 29213,no changes in fluorescence intensity
same,DiSC3(5) fluorescence intensity (membrane depolarization),E. coli ATCC 25922,no changes in fluorescence intensity
same,interaction with E. coli DNA (gel mobility shift),E. coli DNA,able to directly interact with the E. coli DNA
same,MRTIast,[1]; IP 20 mg/kg,1.08 h
same,Mean plasma concentration,"[1]; IP 20 mg/kg, 24 hr",BQL
same,Mean plasma concentration,"[1]; IV 5 mg/kg, 8 hr",BQL
same,Mean plasma concentration,"[1]; IV 5 mg/kg, 24 hr",BQL
same,MRTIast,[1]; SC 40 mg/kg,5.54 h
same,time blood concentrations maintained above MICs,[1]; iv single dose 5 mg/kg,more than 4 hours
same,bioavailability,"[1]; male, CD-1, mouse, plasma, intraperitoneal, ip 20 mg/kg vs iv 5 mg/kg",69.7%
same,Cmax,"[1]; male, CD-1, mouse, plasma, ip, 20 mg/kg, IP 20 mg/kg",18400 ng/mL
same,Cmax,[1]; [4],18400 ng/mL
same,half-life,[1]; [4],1.02 h
same,clearance,[1]; [5],9.68 mL/min/kg
same,half-life,[1]; [5],0.478 h
same,half-life,"[1]; male, CD-1, mouse, plasma, iv, 5 mg/kg, iv 5 mg/kg",0.48 h
same,Cmax,"[1]; male, CD-1, mouse, plasma, iv, 5 mg/kg, iv 5 mg/kg, for bolus iv Cmax = C0",20300 ng/mL
same,Cmax,"[1]; male, CD-1, mouse, plasma, sc, 40 mg/kg, SC 40 mg/kg",8680 ng/mL
same,Cmax,[1]; [6],8680 ng/mL
same,half-life,[1]; [6],4.68 h
same,bioavailability,"[1]; male, CD-1, mouse, plasma, subcutaneous, sc 40 mg/kg vs iv 5 mg/kg",87.3%
same,AUC(0-inf),[1]; [7],24000 ng·h/mL
same,AUC(0-t),[1]; [7],23900 ng·h/mL
same,MRT inf,[1]; [7],1.13 h
same,Tmax,[1]; [7],0.25 h
same,concentration at 0.083 h,[1]; [7],17500 ng/mL
same,concentration at 0.25 h,[1]; [7],18400 ng/mL
same,concentration at 0.5 h,[1]; [7],14100 ng/mL
same,concentration at 1 h,[1]; [7],9190 ng/mL
same,concentration at 2 h,[1]; [7],2770 ng/mL
same,concentration at 4 h,[1]; [7],452 ng/mL
same,concentration at 8 h,"[1]; male, CD-1, mouse, plasma, IP 20 mg/kg, 8 hr",90.1 ng/mL
same,AUC(0-inf),[1]; [8],8610 ng·h/mL
same,AUC(0-t),[1]; [8],8590 ng·h/mL
same,MRT inf,[1]; [8],0.42 h
same,MRT last,[1]; [8],0.412 h
same,concentration at 0.083 h,[1]; [8],20300 ng/mL
same,concentration at 0.25 h,[1]; [8],7360 ng/mL
same,concentration at 0.5 h,[1]; [8],3630 ng/mL
same,concentration at 1 h,[1]; [8],1770 ng/mL
same,concentration at 2 h,[1]; [8],282 ng/mL
same,concentration at 4 h,[1]; [8],23.3 ng/mL
same,Vd,"[1]; male, CD-1, mouse, plasma, IV 5 mg/kg, read-out: Vss",0.244 L/kg
same,AUC(0-inf),[1]; [9],60100 ng·h/mL
same,AUC(0-t),[1]; [9],58800 ng·h/mL
same,MRT inf,[1]; [9],6.07 h
same,Tmax,[1]; [9],1 h
same,concentration at 0.083 h,[1]; [9],7730 ng/mL
same,concentration at 0.25 h,[1]; [9],6690 ng/mL
same,concentration at 0.5 h,[1]; [9],7340 ng/mL
same,concentration at 1 h,[1]; [9],8680 ng/mL
same,concentration at 2 h,[1]; [9],4620 ng/mL
same,concentration at 4 h,[1]; [9],3560 ng/mL
same,concentration at 8 h,"[1]; male, CD-1, mouse, plasma, SC 40 mg/kg, 8 hr",2810 ng/mL
same,concentration at 24 h,"[1]; male, CD-1, mouse, plasma, SC 40 mg/kg, 24 hr",188 ng/mL
same,time blood concentrations maintained above MICs,[1]; sc single dose 40 mg/kg,more than 8 hours
